Legend:
Format in all cases: cell-based
[1] = target: Sodium-dependent dopamine transporter (Homo sapiens, UniProt Q01959); test: Displacement of [3H]RTI-55 from human DAT transfected in human HEK293 cells
[2] = target: Sodium-dependent serotonin transporter (Homo sapiens, UniProt P31645); test: Displacement of [3H](R,S)citalopram.HBr from human SERT transfected in human HEK293 cells
[3] = tested on: HEK293; test: Selectivity for human DAT over human SERT transfected in human HEK293 cells
[4] = tested on: HEK293; test: Selectivity for human NET over human SERT transfected in human HEK293 cells
[5] = target: Sodium-dependent noradrenaline transporter (Homo sapiens, UniProt P23975); test: Displacement of [3H]nisoxetine from human NET transfected in human HEK293 cells
Sequence of Sodium-dependent noradrenaline transporter (P23975 whole entry): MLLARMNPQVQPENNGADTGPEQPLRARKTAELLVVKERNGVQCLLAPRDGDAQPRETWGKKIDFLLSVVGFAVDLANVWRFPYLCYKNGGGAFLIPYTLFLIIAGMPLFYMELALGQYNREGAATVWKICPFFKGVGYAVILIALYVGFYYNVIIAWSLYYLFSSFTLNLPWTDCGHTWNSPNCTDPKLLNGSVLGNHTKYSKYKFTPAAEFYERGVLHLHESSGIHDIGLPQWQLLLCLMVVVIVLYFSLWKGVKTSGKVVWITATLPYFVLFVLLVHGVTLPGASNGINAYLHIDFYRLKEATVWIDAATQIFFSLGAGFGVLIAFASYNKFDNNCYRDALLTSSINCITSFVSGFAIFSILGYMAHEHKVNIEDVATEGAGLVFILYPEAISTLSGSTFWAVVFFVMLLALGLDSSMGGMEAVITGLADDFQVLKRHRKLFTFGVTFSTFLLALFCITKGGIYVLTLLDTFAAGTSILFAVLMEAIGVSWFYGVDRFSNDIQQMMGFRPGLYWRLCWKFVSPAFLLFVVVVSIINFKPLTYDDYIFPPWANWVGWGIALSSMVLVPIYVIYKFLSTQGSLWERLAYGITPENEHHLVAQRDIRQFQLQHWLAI

Sequence of Sodium-dependent serotonin transporter (P31645 whole entry): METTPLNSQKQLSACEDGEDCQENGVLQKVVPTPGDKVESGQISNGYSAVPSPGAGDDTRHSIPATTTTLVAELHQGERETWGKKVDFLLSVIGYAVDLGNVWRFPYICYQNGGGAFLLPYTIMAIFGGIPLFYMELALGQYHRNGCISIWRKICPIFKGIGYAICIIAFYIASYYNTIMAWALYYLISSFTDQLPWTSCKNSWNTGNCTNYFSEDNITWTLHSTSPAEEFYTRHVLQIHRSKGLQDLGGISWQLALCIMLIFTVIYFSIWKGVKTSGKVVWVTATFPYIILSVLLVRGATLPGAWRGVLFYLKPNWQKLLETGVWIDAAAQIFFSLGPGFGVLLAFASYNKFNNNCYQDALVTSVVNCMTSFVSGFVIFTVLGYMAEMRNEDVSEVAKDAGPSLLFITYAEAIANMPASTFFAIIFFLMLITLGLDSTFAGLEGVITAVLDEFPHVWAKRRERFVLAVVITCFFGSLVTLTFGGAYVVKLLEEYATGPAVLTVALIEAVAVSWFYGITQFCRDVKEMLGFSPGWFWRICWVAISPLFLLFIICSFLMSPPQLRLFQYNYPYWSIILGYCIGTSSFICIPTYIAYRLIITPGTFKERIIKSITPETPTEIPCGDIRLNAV
Sequence of Sodium-dependent dopamine transporter (Q01959 whole entry): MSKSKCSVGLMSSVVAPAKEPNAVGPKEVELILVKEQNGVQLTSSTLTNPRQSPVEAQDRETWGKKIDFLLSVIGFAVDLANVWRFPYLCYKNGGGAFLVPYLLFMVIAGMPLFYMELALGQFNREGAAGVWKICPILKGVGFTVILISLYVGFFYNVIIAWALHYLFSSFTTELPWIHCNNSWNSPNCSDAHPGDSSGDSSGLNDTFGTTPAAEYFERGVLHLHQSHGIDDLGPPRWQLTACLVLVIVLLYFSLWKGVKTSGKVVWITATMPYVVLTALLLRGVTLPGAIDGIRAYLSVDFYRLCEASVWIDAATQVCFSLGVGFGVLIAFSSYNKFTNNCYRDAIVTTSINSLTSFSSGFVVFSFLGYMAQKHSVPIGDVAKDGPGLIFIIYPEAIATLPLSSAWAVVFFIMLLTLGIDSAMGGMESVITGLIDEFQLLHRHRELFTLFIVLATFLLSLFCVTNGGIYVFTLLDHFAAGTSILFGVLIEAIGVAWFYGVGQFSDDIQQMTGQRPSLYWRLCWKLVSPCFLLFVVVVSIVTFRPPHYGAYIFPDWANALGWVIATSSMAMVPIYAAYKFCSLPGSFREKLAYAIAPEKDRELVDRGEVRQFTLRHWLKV

## O=C(OCCF)C1C2CCC(CC1c1cccc(/C=C/I)c1)N2 (trans isomer)
[1]
  Ki: 0.274 µM
[2]
  Ki: 0.0152 µM
[3]
  Ratio Ki: 18
[4]
  Ratio Ki: 78
[5]
  Ki: 1.18 µM

## O=C(OCCCF)C1C2CCC(CC1c1cccc(/C=C\Br)c1)N2 (stereo not given)
[1]
  Ki: 0.119 µM
[2]
  Ki: 0.00033 µM
[3]
  Ratio Ki: 360
[4]
  Ratio Ki: 92
[5]
  Ki: 0.0302 µM

## O=C(OCCF)C1C2CCC(CC1c1cccc(/C=C\Br)c1)N2 (stereo not given)
[1]
  Ki: 0.0355 µM
[2]
  Ki: 0.00033 µM
[3]
  Ratio Ki: 108
[4]
  Ratio Ki: 307
[5]
  Ki: 0.101 µM

## O=C(OCCCF)C1C2CCC(CC1c1cccc(/C=C\I)c1)N2 (stereo not given)
[1]
  Ki: 0.18 µM
[2]
  Ki: 0.00026 µM
[3]
  Ratio Ki: 691
[4]
  Ratio Ki: 260
[5]
  Ki: 0.0675 µM

## O=C(OCCF)C1C2CCC(CC1c1cccc(/C=C\I)c1)N2 (stereo not given)
[1]
  Ki: 0.0876 µM
[2]
  Ki: 0.00043 µM
[3]
  Ratio Ki: 204
[4]
  Ratio Ki: 256
[5]
  Ki: 0.11 µM

Reference: ChEMBL document CHEMBL1151757, “Synthesis, radiosynthesis, and biological evaluation of fluorine-18-labeled 2beta-carbo(fluoroalkoxy)-3beta-(3'-((Z)-2-haloethenyl)phenyl)nortropanes: candidate radioligands for in vivo imaging of the serotonin transporter with positron emission tomography” (J Med Chem, 2008)
